Results published in US6358885B1, “Substituted phenylheterocyclic herbicides” (Mississippi State University, priority 1992, dated 2002).

Key:
bedstraw = assay: Test C preemergence/postemergence greenhouse plant response rating 0 to 100; type: in vivo, Galium aparine; conditions: POSTEMERGENCE; for Plant response rating, Bedstraw: 0 to 100 scale
Description: (§1) The compounds evaluated in this test were formulated in a non-phytoxic solvent and applied to the soil surface before plant seedlings emerged (preemergence application), to water that covered the soil surface (flood application), and to plants that were in the one-to-four leaf stage (postemergence application). A sandy loam soil was used for the preemergence and postemergence tests, while a silt loam soil was used in the flood test. Water depth was approximately 2.5 cm for the flood test and was maintained at this level for the duration of the test. Plant species in the preemergence and postemergence tests consisted of barley (Hordeum vulgare), bedstraw (Galium aparine), blackgrass (Alopecurus myosuroides), chickweed (Stellaria media), corn (Zea mays), cotton (Gossypium hirsutum), crabgrass (Digitaria sanguinalis), downy brome (Bromus tectorum), giant foxtail (Setaria faberii), lambsquarters (Chenopodium album), morningglory (Ipomoea hederacea), pigweed ([…]), rape (Brassica napus), ryegrass (Lolium multiflorum), sorghum (Sorghum bicolor), soybean (Glycine max), speedwell (Veronica persica), sugar beet (Beta vulgaris), velvetleaf (Abutilon theophrasti), wheat (Triticum aestivum), wild buckwheat (Polygonum convolvulus), and wild oat (Avena fatua). All plant species were planted one day before application of the compound for the preemergence portion-of this test. Plantings of these species were adjusted to produce plants of appropriate size for the post-emergence portion of the test. […] All plant species were grown using normal greenhouse practices. Visual evaluations of injury expressed on treated plants, when compared to untreated controls, were recorded approximately fourteen to twenty one days after application of the test compound. […] A dash (-) response means no test result.

blackgrass = assay: Test B preemergence/postemergence greenhouse plant response rating 0 to 10; type: in vivo, Alopecurus myosuroides; conditions: for Plant response rating, Blackgrass: 0 to 10 scale
How it was run: (§2)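 Postemergence treatment of plants two to eighteen cm tall ran alongside preemergence treatment of planted seed, each using compound in a non-phytotoxic solvent.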

sugar beet = assay: as above; type: in vivo, Beta vulgaris; conditions: 0 to 10 scale
How it was run: as §2

rape = assay: Test C preemergence/postemergence greenhouse plant response rating 0 to 100; type: in vivo, Brassica napus; conditions: POSTEMERGENCE; for Plant response rating, Rape: 0 to 100 scale
Description: as §1

corn [1] = assay: as above; type: in vivo, Zea mays; conditions: POSTEMERGENCE; for Plant response rating, Corn: 0 to 100 scale
Description: as §1

wild oat = assay: as above; type: in vivo, Avena fatua; conditions: POSTEMERGENCE; for Plant response rating, Wild oat: 0 to 100 scale
Description: as §1

barley = assay: Test B preemergence/postemergence greenhouse plant response rating 0 to 10; type: in vivo, Hordeum vulgare; conditions: for Plant response rating, Barley: 0 to 10 scale
How it was run: as §2

morningglory = assay: Test C preemergence/postemergence greenhouse plant response rating 0 to 100; type: in vivo, Ipomoea hederacea; conditions: POSTEMERGENCE; for Plant response rating, Morningglory: 0 to 100 scale
Description: as §1

crabgrass = assay: as above; type: in vivo, Digitaria sanguinalis; conditions: POSTEMERGENCE; for Plant response rating, Crabgrass: 0 to 100 scale
Description: as §1

chickweed = assay: Test B preemergence/postemergence greenhouse plant response rating 0 to 10; type: in vivo, Stellaria media; conditions: 0 to 10 scale
How it was run: as §2

rice = assay: Test C flood test plant response rating 0 to 100; type: in vivo, Oryza sativa; conditions: for Plant response rating Rice Japonica: flood test species listed under POSTEMERGENCE, 0 to 100 scale
Description: as §1

wheat = assay: Test C preemergence/postemergence greenhouse plant response rating 0 to 100; type: in vivo, Triticum aestivum; conditions: POSTEMERGENCE; for Plant response rating, Wheat: 0 to 100 scale
Description: as §1

sorghum = assay: Test B preemergence/postemergence greenhouse plant response rating 0 to 10; type: in vivo, Sorghum bicolor; conditions: 0 to 10 scale
How it was run: as §2

velvetleaf = assay: as above; type: in vivo, Abutilon theophrasti; conditions: 0 to 10 scale
How it was run: as §2

purple nutsedge = assay: as above; type: in vivo, Cyperus rotundus; conditions: 0 to 10 scale
How it was run: as §2

ryegrass = assay: Test C preemergence/postemergence greenhouse plant response rating 0 to 100; type: in vivo, Lolium multiflorum; conditions: POSTEMERGENCE; for Plant response rating Ryegrass: 0 to 100 scale
Description: as §1

barnyardgrass = assay: Test B preemergence/postemergence greenhouse plant response rating 0 to 10; type: in vivo, Echinochloa crus-galli; conditions: for Plant response rating, Barnyardgrass: 0 to 10 scale
How it was run: as §2

corn [2] = assay: as above; type: in vivo, Zea mays; conditions: for Plant response rating, Corn: 0 to 10 scale
How it was run: as §2

COc1cc(-c2nn3c(c2Cl)CCCC3)c(F)cc1Cl [Compound 29]
Plant response rating, Bedstraw (bedstraw; 62 g/ha): 100 | Plant response rating, Bedstraw (bedstraw; 250 g/ha): 100 | Plant response rating (0 to 100), Bedstraw (bedstraw; Rate 4 g/ha): 90 | Plant response rating (0 to 100), Bedstraw (bedstraw; Rate 16 g/ha): 100 | Plant response rating (0 to 10 scale), Blackgrass (blackgrass; POSTEMERGENCE, Rate 50 g/ha): 3 | Plant response rating, Blackgrass (blackgrass; POSTEMERGENCE, Rate 200 g/ha): 6 | Plant response rating, Blackgrass (blackgrass; PREEMERGENCE, Rate 50 g/ha): 5 | Plant response rating, Blackgrass (blackgrass; Rate 200 g/ha, PREEMERGENCE): 7 | Plant response rating, Sugar beet (sugar beet; POSTEMERGENCE, Rate 50 g/ha): 10 | Plant response rating, Sugar beet (sugar beet; PREEMERGENCE, Rate 50 g/ha): 7 | Plant response rating, Sugar beet (sugar beet; Rate 200 g/ha, POSTEMERGENCE): 10 | Plant response rating, Sugar beet (sugar beet; Rate 200 g/ha, PREEMERGENCE): 10 | Plant response rating, Rape (rape; 62 g/ha): 100 | Plant response rating, Rape (rape; 250 g/ha): 100 | Plant response rating (0 to 100), Rape (rape; Rate 4 g/ha): 90 | Plant response rating (0 to 100), Rape (rape; Rate 16 g/ha): 100 | Plant response rating, Corn (corn [1]; 62 g/ha): 40 | Plant response rating, Corn (corn [1]; 250 g/ha): 50 | Plant response rating (0 to 100), Corn (corn [1]; Rate 4 g/ha): 20 | Plant response rating (0 to 100), Corn (corn [1]; Rate 16 g/ha): 20 | Plant response rating, Wild oat (wild oat; 62 g/ha): 60 | Plant response rating, Wild oat (wild oat; 250 g/ha): 90 | Plant response rating (0 to 100), Wild oat (wild oat; Rate 4 g/ha): 20 | Plant response rating (0 to 100), Wild oat (wild oat; Rate 16 g/ha): 40 | Plant response rating (0 to 10 scale), Barley (barley; POSTEMERGENCE, Rate 50 g/ha): 5 | Plant response rating, Barley (barley; POSTEMERGENCE, Rate 200 g/ha): 7 | Plant response rating, Barley (barley; PREEMERGENCE, Rate 50 g/ha): 0 | Plant response rating, Barley (barley; Rate 200 g/ha, PREEMERGENCE): 4 | Plant response rating, Morningglory (morningglory; 62 g/ha): 80 | Plant response rating, Morningglory (morningglory; 250 g/ha): 100 | Plant response rating (0 to 100), Morningglory (morningglory; Rate 4 g/ha): 70 | Plant response rating (0 to 100), Morningglory (morningglory; Rate 16 g/ha): 80 | Plant response rating, Crabgrass (crabgrass; 62 g/ha): 20 | Plant response rating, Crabgrass (crabgrass; 250 g/ha): 50 | Plant response rating (0 to 100), Crabgrass (crabgrass; Rate 4 g/ha): 0 | Plant response rating (0 to 100), Crabgrass (crabgrass; Rate 16 g/ha): 20 | Plant response rating, Chickweed (chickweed; POSTEMERGENCE, Rate 200 g/ha): 8 | Plant response rating, Chickweed (chickweed; PREEMERGENCE, Rate 50 g/ha): 3 | Plant response rating, Chickweed (chickweed; Rate 200 g/ha, PREEMERGENCE): 7 | Plant response rating (0 to 100), Rice Japonica (rice; POSTEMERGENCE section, flood test, Rate 4 g/ha): 30 | Plant response rating (0 to 100), Rice Japonica (rice; Rate 16 g/ha, under POSTEMERGENCE head (flood test species)): 65 | Plant response rating Rice Japonica (rice; 62 g/ha): 70 | Plant response rating Rice Japonica (rice; 250 g/ha): 90 | Plant response rating, Wheat (wheat; 62 g/ha): 80 | Plant response rating, Wheat (wheat; 250 g/ha): 95 | Plant response rating (0 to 100), Wheat (wheat; Rate 4 g/ha): 20 | Plant response rating (0 to 100), Wheat (wheat; Rate 16 g/ha): 30 | Plant response rating, Sorghum (sorghum; POSTEMERGENCE, Rate 50 g/ha): 5 | Plant response rating, Sorghum (sorghum; PREEMERGENCE, Rate 50 g/ha): 0 | Plant response rating, Sorghum (sorghum; Rate 200 g/ha, POSTEMERGENCE): 6 | Plant response rating, Sorghum (sorghum; Rate 200 g/ha, PREEMERGENCE): 1 | Plant response rating, Velvetleaf (velvetleaf; POSTEMERGENCE, Rate 50 g/ha): 8 | Plant response rating, Velvetleaf (velvetleaf; PREEMERGENCE, Rate 50 g/ha): 10 | Plant response rating, Velvetleaf (velvetleaf; Rate 200 g/ha, POSTEMERGENCE): 10 | Plant response rating, Velvetleaf (velvetleaf; Rate 200 g/ha, PREEMERGENCE): 10 | Plant response rating, Nutsedge (purple nutsedge; POSTEMERGENCE, Rate 50 g/ha): 4 | Plant response rating, Nutsedge (purple nutsedge; PREEMERGENCE, Rate 50 g/ha): 0 | Plant response rating, Nutsedge (purple nutsedge; Rate 200 g/ha, POSTEMERGENCE): 4 | Plant response rating, Nutsedge (purple nutsedge; Rate 200 g/ha, PREEMERGENCE): 0 | Plant response rating Ryegrass (ryegrass; 62 g/ha): 70 | Plant response rating Ryegrass (ryegrass; 250 g/ha): 90 | Plant response rating (0 to 100), Ryegrass (ryegrass; Rate 4 g/ha): 30 | Plant response rating (0 to 100), Ryegrass (ryegrass; Rate 16 g/ha): 60 | Plant response rating (0 to 10 scale), Barnyardgrass (barnyardgrass; POSTEMERGENCE, Rate 50 g/ha): 8 | Plant response rating, Barnyardgrass (barnyardgrass; POSTEMERGENCE, Rate 200 g/ha): 10 | Plant response rating, Barnyardgrass (barnyardgrass; PREEMERGENCE, Rate 50 g/ha): 4 | Plant response rating, Barnyardgrass (barnyardgrass; Rate 200 g/ha, PREEMERGENCE): 8 | Plant response rating (0 to 10 scale), Corn (corn [2]; POSTEMERGENCE, Rate 50 g/ha): 6 | Plant response rating, Corn (corn [2]; POSTEMERGENCE, Rate 200 g/ha): 7 | Plant response rating, Corn (corn [2]; PREEMERGENCE, Rate 50 g/ha): 0 | Plant response rating, Corn (corn [2]; Rate 200 g/ha, PREEMERGENCE): 6
